Series [1] deals with GAD65 P10-specific T-cell hybridomas. The series is described as follows: T-cell hybridoma screen with Priess cells as APCs, IL-2 ELISA. Format: cell-based, mouse. The note with it: for epitope mapping by hybridoma response: 15-mers and truncated peptides, hybridomas SC3 and SC22, 48 h co-culture. Here is the method:
HLA-DR4 transgenic mice were injected subcutaneously with Complete Freund's Adjuvant (CFA) and 100 μg of GAD65 P10 30-mer. After 10 days, splenocytes were isolated and re-stimulated with GAD65 P10 30-mer for a further 4-5 days before fusion with hypoxanthine-aminopterin-thymidine (HAT) sensitive BW5147 cells using polyethylene glycol (PEG). Fused hybridomas were expanded in HAT selection media before antigen-specific screening. Co-cultures of 1×10^5 hybridomas and 2×10^5 Priess cells (an Epstein-Barr Virus (EBV) transformed DR4 (DRB1*04:01) expressing human cell line (ECACC 86052111)) as antigen presenting cells (APCs) were incubated for 48 h in a 96-well plate with peptide, whole GAD65 protein, or media only. Antigen-specific responses were determined by IL-2 secretion into culture supernatant by ELISA assay (BioLegend 431004). Hybridomas that proliferated in response to both GAD65 protein and GAD65 30-mer were single cell cloned by limiting dilution.
Six 15-mers that spanned the parent 30-mer amino acid sequence were generated by 3 amino acid shifts from the N-terminus toward the C-terminus.

Another series in a line: Solubility in PBS. Format: physicochemical. Here is the method:
Peptides were synthesized by GL Biochem (Shanghai) Ltd or Genscript (Leiden, The Netherlands). Peptides were >90% purity, resuspended from lyophilised powder in either 100% v/v dimethyl sulfoxide (DMSO) for 30-mers or PBS for soluble peptides. GAD65 protein was synthesised by Biologics Corporation. Purified protein derivative (PPD; Prionics; 7600060) was used at 300 IU/mL. Keyhole limpet haemocyanin (KLH; ThermoFisher Scientific; 77600) was used at 20 μg/mL.
Iterations designed around the core minimal epitope included retention of non-critical residues and/or addition of multiple lysine residues to both the N- and C-termini (FIG. 3E). […] Although P10.5.C.6K contains only the critical core epitope with additional lysine residues, the re-inclusion of the single non-critical alanine at the C-terminus (P10.5.C+1.6K), increased the potency of the single-clone hybridoma response by 10-fold (FIG. 3F).

For series [2], the system named is MHC class II molecules on fixed or non-fixed HLA-DR4 transgenic mouse splenocytes (hybridoma SC3 readout). The series is described as follows: Fixed APC T-cell hybridoma screen. Format: cell-based. The note with it: co-culture with formaldehyde fixed and non-fixed HLA-DR4 splenocytes, 48 h. Here is the method:
Splenocytes from HLA-DR4 transgenic mice were formaldehyde fixed by the following protocol performed at room temperature; 5 min incubation with 0.5% w/v formaldehyde in PBS at 1×10^6 cells/mL quenched by addition of an equal volume of 0.4 M glycine in PBS solution for a further 5 min, before three washes with cold PBS. T-cell hybridoma screens were set up using 1×10^5 hybridomas and either 2×10^5 formaldehyde fixed APCs or 2×10^5 non-fixed APCs for 48 h co-culture with stimulant or control and responses measured by IL-2 secretion.
(§1) The next step was to test if GAD65 P10.5.C+1.6K (P10Sol; SEQ ID NO 23) could bind to: (i) MHC class II molecules without antigen processing and, (ii) to steady-state CD11c^+ APCs. These properties are good indicators of whether a peptide can induce tolerance and be characterised as an apitope (Shepard et al., 2021). Formaldehyde fixation of splenocytes inhibits antigen processing and so to test whether GAD65 P10Sol could bind directly to cell-surface MHC class II without antigen processing, GAD65 P10-specific hybridoma SC3 was co-cultured with fixed or non-fixed splenocytes from HLA-DR4 transgenic mice. […] To test whether P10Sol could bind to steady-state CD11c^+ APCs in vivo, HLA-DR4 transgenic mice were injected with 80 μg of P10Sol or PBS, with CD11c^+ splenocytes isolated 1 h later and co-cultured with GAD65 P10 hybridomas SC3 or SC22. […]

The test system of a further series is steady-state CD11c+ APCs. Put plainly: Steady state CD11c+ peptide binding assay. The class given is in vivo, HLA-DR4 transgenic mice. The note with it: antigen added exogenously to the in vitro culture. As to the method:
HLA-DR4 transgenic mice were injected subcutaneously with 80 μg of GAD65 P10.5.C+1.6K (GAD65 P10Sol) peptide, before isolation of CD11c^+ splenocytes 1 h later CD11c^+ positive selection kit (Miltenyi; 130-125-835). T-cell hybridoma responses were measured by secreted IL-2 after a 48 h co-culture of 0.5×10^5 CD11c^+ cells with 1×10^5 GAD65 P10-specific hybridomas with or without exogenous antigen added in vitro.
as §1

Series [3] has as its target T1, HLA-DR4 MHC class II (HLA-DRA*0101, HLA-DRB1*0401) (human, UniProt P01903 26-254; P01911 30-266, limits assumed).
T1 construct: whole, on cells; On splenocytes or CD11c+ splenocytes of HLA-DR4 transgenic mice; also called MHCII; DR4 (DRB1*04:01)
T1 MHC II alpha: not shown
T1 MHC II beta: not shown
Put plainly: IL-2 response of hybridoma SC3 with formaldehyde-fixed or non-fixed HLA-DR4 transgenic splenocytes.
Text: as §1, with “CD11c⁺” for “CD11c^+”, “mice. Response to whole GAD65 protein required antigen processing from non-fixed splenocytes, whereas both GAD65 P10 30-mer and GAD65 P10Sol (SEQ ID NO 23) induced strong IL-2 responses from hybridoma SC3 when co-cultured with both fixed and non-fixed splenocytes (FIG. 3G).” for “mice.”

The target in series [4] is T1, HLA-DR4 MHC class II (HLA-DRA*0101, …). The series is described as follows: cell-based or functional assay.
Series [5] concerns the target TCRs of individuals with type 1 diabetes. The series is described as follows: cell-based or functional assay.

Ends that are not written are not given here.

Experimental findings from patent publication US20260034200A1, “TOLEROGENIC PEPTIDES” (University of Birmingham, priority 2022, published 2026) are described below.

With KHKWKLSGVERANSV [P10.5 15-mer], in series [1], the “epitope mapping by hybridoma response” value is “responsive 15-mer”. Turning to “KKKWKLSGVERAKKK [Peptide P10Sol, KKKWKLSGVERAKKK]”, in “Solubility in PBS”, the “solubility in PBS” value was “highly soluble”.

As to “KKKWKLSGVERKKK [Peptide P10.5.C.6K, KKKWKLSGVERKKK]”, the “solubility in PBS” value in the series “Solubility in PBS” is “highly soluble”. As for WKLSGVER [Peptide P10.5.C], the “epitope mapping by hybridoma response” value in series [1] was “minimal core epitope”. As to “glutamate decarboxylase 65 (GAD65) [GAD65 protein, reference compound]”, the “IL-2 response from hybridoma SC3” value in series [2] is recorded as “required antigen processing from non-fixed splenocytes”. Besides, the “hybridoma IL-2 response” value in series [1] (hybridoma multi-clone 6 with HLA-DRB1*04:01 expressing APCs) is “could respond”. Besides, the “IL-2 response of P10-specific hybridomas to CD11c+ cells from PBS injected mice” value in the series on steady-state CD11c+ APCs is reported as “observed”.

B1: GAD65 P10 30-mer (peptide)
peptide: DAAWGGGLLMSRKHKWKLSGVERANSVTWN
notes: Synthetic 30-residue fragment of human GAD65
In the case of B1, in series [3], the binding result was “binds”. For the molecule KKKWKLSGVERAKKK [GAD65 P10.5.C+1.6K (P10Sol)], the “potency of the single-clone hybridoma IL-2 response with Priess cells, against P10.5.C.6K (SEQ ID NO 22)” value in series [4] was 10 fold. The FAIM+ (CD25+ CD71+ CTVmid CD4 T-cell) response of T1D patient PBMCs; share of P10 30-mer responders that also responded to P10Sol in series [5] was 38%.
